The values that follow come from patent publication US9446039B2, “Aminoheteroaryl compounds as MTH1 inhibitors” (CEMM—FORSCHUNGSZENTRUM FÜR MOLEKULARE MEDIZIN GMBH, priority 2012, dated 2016).

Series [1] concerns the target T1, MTH1 (Homo sapiens, UniProt P36639). The series is described as follows: MTH1 catalytic assay (luminescence-based, PPi from 8-oxo-dGTP hydrolysis, PPiLight). More on the design: His-tag (TEV site) (cleaved yes); made in house; host or cells: E. coli BL-21(DE3), vector pETM-11. In kind it is biochemical.
Series [2] has as its system SW480 cells. The series is described as follows: Indirect immunofluorescence for 53BP1 foci in SW480 cells. In kind it is cell-based, human. To be noted: 6 days treatment. The method, then:
Indirect Immunofluorescence. Cells were treated with compounds for 6 days, following which they were adhered to glass coverslips, washed with PBS and then fixed with 3% paraformaldehyde in PBS for 20 minutes. Fixed cells were rinsed with PBS and permebealised with 0.5% Triton-X-100 for 5 minutes. PBS washed slides were incubated for 1 hour with 10% FCS and 0.1% Triton-X-100 in PBS following which cells were stained with an anti-53BP1 monoclonal antibody (H-300, Santa Cruz, diluted 1:600), in 10% FCS and 0.1% Triton-X-100 in PBS. […] After a PBS wash, DNA was counterstained with DAPI (Sigma-Aldrich) for 10 minutes and the coverslips were mounted in Fluorescent Mounting Medium (Dako). Images were analysed with a Zeiss fluorescent microscope at 63 times magnification with supporting software.

Series [3] has as its system SW480 cells. The series is described as follows: Alkaline comet assay (DNA single strand breaks) in SW480 cells. To be noted: 6 days treatment, alkali conditions. The class given is cell-based, human. Here is the method: (§1) Comet Assay. Cells were treated with compounds for 6 days, upon which DNA single-strand breaks were assayed using the comet assay under alkali conditions. […] Cells were washed twice with PBS, harvested using a rubber scraper, pelleted by centrifugation, resuspended in PBS and mixed with 1% low-gelling-temperature agarose (Sigma type VII) that was maintained at 37° C. The mixture of cells and agarose was layered onto frosted glass slides pre-coated with 0.5% agarose and slides were placed on ice to gel. Slides were maintained in the dark for all subsequent steps. […] After electrophoresis for 25 minutes at 25 volts, slides were placed at 4° C. over-night, in the dark. The following day, slides were neutralized with 0.4 M Tris-HCl pH 7.0 for 1 hour and stained with SYBR Gold (Invitrogen, diluted 1:10,000 in distilled water) for 30 minutes. Comet tail moments (defined as the average distance migrated by the DNA multiplied by the fraction of DNA in the comet tail) were scored using the CellProfiler cell image analysis software.

In series [4] the target is T1, MTH1. The experiment in a line: Isothermal titration calorimetry (direct binding assay). Also noted: His-tag (TEV site) (cleaved yes); made in house; host or cells: E. coli BL21 DE3. The settings on record: 15° C., 50 mM Tris-HCl pH 7.8, 150 mM NaCl. For orientation: ITC needs no label: the signal is the heat of the interaction.
The subject of series [5] is Ewing's sarcoma family of tumours (ESFT) cells.
The next series deals with BJ skin fibroblasts. The series is described as follows: Colony formation assay with untransformed BJ skin fibroblasts. The class given is cell-based, human. The settings on record: 10 days incubation; listed as (R)-enantiomer.
Series [6] deals with SH-SY5Y, NCI-H3122 and NCI-H1648 cell lysates. The experiment in a line: Chemical proteomics competition pull-downs (iTRAQ) in SH-SY5Y, NCI-H3122 and NCI-H1648 lysates. The class given is binding, human. The settings on record: competition with 20 μM unmodified crizotinib.
A further series has as its system BJ fibroblasts. The experiment in a line: 8-oxo-guanine staining in BJ cells. The settings on record: fixed 72 h later.
A further series has as its system MRC-5 lung fibroblasts. The series is described as follows: Comet assay in MRC-5 lung fibroblasts. The class given is cell-based. The method, then: as §1
Series [7] deals with SW480 colon carcinoma cells. The series is described as follows: siRNA experiments (MTH1 gene silencing, colony staining). In kind it is cell-based, human. Here is the method:
siRNA Experiments. Both a commercial anti-MTH1 siRNA set (SMARTpool ON-TARGETplus, Dharmacon) as well as a custom-synthesised siRNA (Sigma-Aldrich) were obtained. […]. For transfections, cells were seeded in 24-well plates at approximately 30% confluency 24 h prior to siRNA treatment. The next day, medium was aspirated and transfections were performed with […]in (Polyplus) according to manufacturer's instructions using a final siRNA concentration of 10 nM. Cells were incubated for 2-3 days, washed, detached with trypsin and replated in 6-well plates. After 7-10 days, medium was aspirated, cells were washed with PBS, fixed with ice-cold methanol, stained with crystal violet solution (0.5% in 25% methanol) and left to dry overnight. […]. Data were analysed using the GraphPad Prism software (t test, P<0.05).

Series [8] deals with SW480 cells. The experiment in a line: Colony formation assay using SW480 cells. The class given is cell-based, human. The settings on record: K-Ras-mutated SW480 colon carcinoma. The method, then:
Colony Formation Assay Using SW480 Cells. One day before treatment, 10^4 cells were seeded per well in 6-well plates and incubated for 24 h. The next day DMSO (equal to highest amount of compound dilution, maximum 0.2%) or compounds in increasing concentrations were added and cells incubated at 37° C., 5% CO2, for 7-10 days. After washing with PBS (Gibco), cells were fixed with ice-cold methanol, stained with crystal violet solution (0.5% in 25% methanol) and left to dry overnight. For quantification of results, UV absorbance of crystal violet was determined at 595 nm after solubilisation by 70% ethanol. Data were analysed using non-linear regression analysis utilizing the GraphPad Prism software.

The test system of a further series is ALK. The experiment in a line: Drug pull-down with immobilized compounds from SH-SY5Y cells, Western blot for ALK. The settings on record: SH-SY5Y lysate. The class given is binding, human. In general terms: In western blotting, separated proteins are transferred to a membrane and probed.
[9] abbreviates: error of nonlinear least squares fit.

Entries after “also recorded” stand apart in the source; their conditions may differ.

In the case of `COc1cc(N2CCC(N3CCN(C)CC3)CC2)ccc1Nc1ncc(Cl)c(Nc2ccccc2S(=O)(=O)C(C)C)n1` [NVP-TAE684, reference compound], on MTH1 [1] (concentrations of 100 μM, data not shown), the “inhibition of MTH1 catalytic activity at 100 μM” value was “did not exhibit any significant inhibition”.
As usually defined, the Kd is the free concentration of one partner at which half of the binding sites on the other are occupied at equilibrium, for simple one-to-one binding. Read a high Kd as lower affinity. Consider `COc1ccc2nc3c(c(C)nn3C)c(NCCOCCO)c2c1` [SCH51344], for which the “number of 53BP1 foci” value in the series with SW480 cells [2] is on record as “increase the number of 53BP1 foci”. Moreover, in the series with SW480 cells [3], the “tail moment in the comet assay” value is on record as “yielded a significant tail moment”. For the same compound, the TΔS on MTH1 [4] worked out at 3.17 kcal/mol. For the same compound, on MTH1 [4] (setting [9]), binding was characterised by a dissociation constant (Kd) of 49 ± 5.6 nM and the ΔH was -6.479 ± 0.045 kcal/mol.
With `C[C@@H](Oc1cc(-c2cnn(C3CCNCC3)c2)cnc1N)c1c(Cl)ccc(F)c1Cl` [(R)-crizotinib, 3-[1-(2,6-dichloro-3-fluoro-phenyl)-ethoxy]-5-(1-piperidin-4-yl-1H-pyrazol-4-yl)-pyridin-2-ylamine], the “growth inhibition of ESFT cells” value in series [5] was “inhibited the growth of these cells at low nanomolar concentrations”. For the same compound, the “toxicity on non-transformed BJ skin fibroblasts (colony formation)” value in the series on BJ skin fibroblasts is “significantly impairs the growth; also recorded: higher toxicity”. The “targets identified by chemical proteomics” value in series [6] is reported as “common target of crizotinib in all samples”. Besides, in the series on BJ fibroblasts, the “staining of anti-8-oxo-guanine antibody” value is given as “not”.
With `CC(Oc1cc(-c2cnn(C3CCNCC3)c2)cnc1N)c1c(Cl)ccc(F)c1Cl` (racemic) [racemic crizotinib, 3-[1-(2,6-dichloro-3-fluoro-phenyl)-ethoxy]-5-(1-piperidin-4-yl-1H-pyrazol-4-yl)-pyridin-2-ylamine], in the series on MRC-5 lung fibroblasts, the “DNA damage in comet assay” value is “induced DNA damage”.
Turning to “anti-MTH1 siRNA: siRNA against MTH1; custom sequence CGACGACAGCUACUGGUUU (SEQ ID No. 48) or SMARTpool set (listed as RNA, chemistry not given here)”, the “viability of SW480 cells after MTH1 gene silencing” value in series [7] is listed as “impairs viability”.
For `Cn1cc(-c2ccc3nnc(C(F)(F)c4ccc5ncccc5c4)n3n2)cn1` [JNJ-38877605, reference compound], the “colony formation / growth of SW480 cells” value with SW480 cells [8] is given as “does not suppress growth”.
For `CC(Oc1cc(-c2cnn(C3CCN(CCCN)CC3)c2)cnc1N)c1c(Cl)ccc(F)c1Cl` (stereo not drawn) [CeMM-146], the “inhibition of MTH1 catalytic activity (in words)” value on MTH1 [1] (8-oxo-dGTP hydrolysis) is listed as “nanomolar inhibition”. Also, the “enrichment / binding of ALK isoforms by immobilized compound” value with ALK is on record as “enriches both ALK isoforms to highest extent”.
